From patent US9828368B2 (MERCK SHARP & DOHME CORP., priority 2013, dated 2017)

What was measured:
human orexin-2 receptor = human orexin-2 receptor (Homo sapiens (Human), UniProt O43614); assay: FLIPR Ca2+ flux assay, hOX2R; format: cell-based; conditions: CHO cells expressing human orexin-2 receptor; agonist 70 pM Ala-6,12 orexin-A
Procedure: In a typical experiment the OX1 and OX2 receptor antagonistic activity of the compounds of the present invention was determined in accordance with the following experimental method. For intracellular calcium measurements, Chinese hamster ovary (CHO) cells expressing the rat orexin-1 receptor or the human orexin-2 receptor, are grown in Iscove's modified DMEM containing 2 mM L-glutamine, […], 1% hypoxanthine-thymidine supplement, 100 U/ml penicillin, 100 μg/ml streptomycin and 10% heat-inactivated fetal calf serum (FCS). The cells are seeded at 20,000 cells/well into Becton-Dickinson black 384-well clear bottom sterile plates coated with poly-D-lysine. All reagents were from GIBCO-Invitrogen Corp. The seeded plates are incubated overnight at 37° C. and 5% CO2. Ala-6,12 human orexin-A as the agonist is prepared as a 1 mM stock solution in 1% bovine serum albumin (BSA) and diluted in assay buffer (HBSS containing 20 mM HEPES, 0.1% BSA and 2.5 mM probenecid, pH7.4) for use in the assay at a final concentration of 70 pM. Test compounds are prepared as 10 mM stock solution in DMSO, then diluted in 384-well plates, first in DMSO, then assay buffer. On the day of the assay, cells are washed 3 times with 100 μl assay buffer and then incubated for 60 min (37° C., 5% CO2) in 60 μl assay buffer containing 1 μM Fluo-4AM ester, 0.02% pluronic acid, and 1% BSA. The dye loading solution is then aspirated and cells are washed 3 times with 100 μl assay buffer. 30 μl of that same buffer is left in each well. Within the Fluorescent Imaging Plate Reader (FLIPR, Molecular Devices), test compounds are added to the plate in a volume of 25 μl, incubated for 5 min and finally 25 μl of agonist is added. Fluorescence is measured for each well at 1 second intervals for 5 minutes and the height of each fluorescence peak is compared to the height of the fluorescence peak induced by 70 pM Ala-6,12 orexin-A with buffer in place of antagonist. […] The intrinsic orexin receptor antagonist activity of a compound which may be used in the present invention may be determined by these assays.

hOX1R = hOX1R (Homo sapiens, UniProt O43613); assay: FLIPR Ca2+ flux assay, hOX1R; format: cell-based; conditions: CHO cells; agonist 70 pM Ala-6,12 orexin-A; rat orexin-1 receptor; read-out: hOX1R FLIPR IC50

Chain of human orexin-2 receptor (O43614 whole entry): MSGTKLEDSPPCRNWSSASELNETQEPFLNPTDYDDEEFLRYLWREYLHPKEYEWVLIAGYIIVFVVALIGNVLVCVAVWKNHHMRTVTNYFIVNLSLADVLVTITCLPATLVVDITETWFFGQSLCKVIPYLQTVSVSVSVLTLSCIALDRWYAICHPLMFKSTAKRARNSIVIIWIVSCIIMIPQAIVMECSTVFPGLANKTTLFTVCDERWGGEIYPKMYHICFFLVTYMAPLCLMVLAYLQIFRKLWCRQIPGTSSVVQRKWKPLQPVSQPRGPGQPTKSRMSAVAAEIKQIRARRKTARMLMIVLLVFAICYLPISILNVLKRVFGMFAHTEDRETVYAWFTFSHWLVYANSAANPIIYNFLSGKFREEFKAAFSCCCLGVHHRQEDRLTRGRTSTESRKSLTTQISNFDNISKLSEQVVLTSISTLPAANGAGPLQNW

Row | Compound | IC50 (human orexin-2 receptor) [nM] | IC50 (hOX1R) [nM]
1 | C[C@@H]1CC[C@@H](c2nc(CF)c(-c3ccccc3)o2)CN1C(=O)c1ccccc1-n1nccn1 [Example 58, (2-(2H-1,2,3-Triazol-2-yl)phenyl)((2R,5R)-5-(4-(fluoromethyl)-5-phenyloxazol-2-yl)-2-methylpiperidin-1-yl)methanone] | 159 | 220
2 | COCc1nc([C@@H]2CC[C@@H](C)N(C(=O)c3ccccc3-n3nccn3)C2)oc1-c1ccccc1 [Example 59, (2-(2H-1,2,3-Triazol-2-yl)phenyl)((2R,5R)-5-(4-(methoxymethyl)-5-phenyloxazol-2-yl)-2-methylpiperidin-1-yl)methanone] | 347 | 100
3 | C[C@@H]1CC[C@@H](c2nc(C(C)(C)O)c(-c3ccccc3)o2)CN1C(=O)c1ccccc1-n1nccn1 [Example 60, (2-(2H-1,2,3-Triazol-2-yl)phenyl)((2R,5R)-5-(4-(2-hydroxypropan-2-yl)-5-phenyloxazol-2-yl)-2-methylpiperidin-1-yl)methanone] | 84 | 76
4 | C[C@@H]1CC[C@@H](c2nc(C(N)=O)c(-c3ccccc3)o2)CN1C(=O)c1ccccc1-n1nccn1 [Example 61, 2-((3R,6R)-1-(2-(2H-1,2,3-Triazol-2-yl)benzoyl)-6-methylpiperidin-3-yl)-5-phenyloxazole-4-carboxamide] | 197 | 65
5 | C[C@@H]1CC[C@@H](c2nc(CC(C)(C)O)c(-c3ccccc3)o2)CN1C(=O)c1ccccc1-n1nccn1 [Example 68, (2-(2H-1,2,3-Triazol-2-yl)phenyl)((2R,5R)-5-(4-(2-hydroxy-2-methylpropyl)-5-phenyloxazol-2-yl)-2-methylpiperidin-1-yl)methanone] | 62 | 95
6 | COC(C)(C)Cc1nc([C@@H]2CC[C@@H](C)N(C(=O)c3ccccc3-n3nccn3)C2)oc1-c1ccccc1 [Example 69, (2-(2H-1,2,3-Triazol-2-yl)phenyl)((2R,5R)-5-(4-(2-methoxy-2-methylpropyl)-5-phenyl-oxazol-2-yl)-2-methylpiperidin-1-yl)methanone] | 287 | 385
7 | C[C@@H]1CC[C@@H](c2nc(CCO)c(-c3ccccc3)o2)CN1C(=O)c1ccccc1-n1nccn1 [Example 70, (2-(2H-1,2,3-Triazol-2-yl)phenyl)((2R,5R)-5-(4-(2-hydroxyethyl)-5-phenyloxazol-2-yl)-2-methylpiperidin-1-yl)methanone] | 59 | 38
8 | C[C@@H]1CC[C@@H](c2nc(CCF)c(-c3ccccc3)o2)CN1C(=O)c1ccccc1-n1nccn1 [Example 71, (2-(2H-1,2,3-triazol-2-yl)phenyl)((2R,5R)-5-(4-(2-fluoroethyl)-5-phenyloxazol-2-yl)-2-methylpiperidin-1-yl)methanone] | 61 | 70
9 | Cc1ccc(-n2nccn2)c(C(=O)N2C[C@H](c3ncc(C)o3)CC[C@H]2C)c1 [Example 72, (5-Methyl-2-(2H-1,2,3-triazol-2-yl)phenyl)((2R,5R)-2-methyl-5-(5-methyloxazol-2-yl)piperidin-1-yl)methanone] | 433 | 4540
10 | C[C@@H]1CC[C@@H](c2ncc(C(C)(C)C)o2)CN1C(=O)c1ccccc1-n1nccn1 [Example 73, (2-(2H-1,2,3-Triazol-2-yl)phenyl)((2R,5R)-5-(5-(tert-butyl)oxazol-2-yl)-2-methylpiperidin-1-yl)methanone] | 30 | 151
11 | C[C@@H]1CC[C@@H](c2ncc(-c3ccccc3)o2)CN1C(=O)c1ccccc1-n1nccn1 [Example 74, (2-(2H-1,2,3-Triazol-2-yl)phenyl)((2R, 5R)-2-methyl-5-(5-phenyloxazol-2-yl)piperidin-1-yl)methanone] | 111 | 55
12 | C[C@@H]1CC[C@@H](c2ncc(C3CCC3)o2)CN1C(=O)c1ccccc1-n1nccn1 [Example 75, (2-(2H-1,2,3-Triazol-2-yl)phenyl)((2R, 5R)-5-(5-cyclobutyloxazol-2-yl)-2-methylpiperidin-1-yl)methanone] | 16 | 59
13 | C[C@@H]1CC[C@@H](c2ncc(C3CC3)o2)CN1C(=O)c1ccccc1-n1nccn1 [Example 76, (2-(2H-1,2,3-Triazol-2-yl)phenyl)((2R, 5R)-5-(5-cyclopropyloxazol-2-yl)-2-methylpiperidin-1-yl)methanone] | 33 | 973
14 | C[C@@H]1CC[C@@H](c2nc(-c3ccccc3)c(-c3ccccc3)o2)CN1C(=O)c1ccccc1-n1nccn1 [Example 77, (2-(2H-1,2,3-Triazol-2-yl)phenyl)((2R,5R)-5-(4,5-diphenyloxazol-2-yl)-2-methylpiperidin-1-yl)methanone] | 515 | 451
15 | ((2R,5R)-5-(4-(2-Hydroxypropan-2-yl)-5- methyloxazol-2-yl)-2-methylpiperidin-1-yl)(2- methoxyphenyl)methanone [Example 30] | 29.4 | > 10000
